This is an account of results in patent publication US6531453B1, “NKT cell activators containing α-glycosylceramides” (Kirin Beera Kabushiki Kaisha, priority 1997, dated 2003).

Test [1] has as its system spleen cells of RAG-1KO/Vα14tg/Vβ8.2tg mice (NKT cells). In words: Stimulation of NKT cell proliferation, [3H]thymidine incorporation in spleen cells. Type of test: cell-based, mouse. The note with it: 2 days incubation. How it is done: Stimulation of NKT cell proliferation by compounds having an α-glycosylceramide structure was studied using spleen cells of RAG-1KO/Vα14tg/Vβ8.2tg mice shown in Pharmacological Test Example 1.
Spleen cells were prepared from the spleen of RAG-1KO/Vα14tg/Vβ8.2tg mice by conventional methods. These spleen cells were suspended at 2×10^6 cells/ml in an RPMI 1640 medium supplemented with 10% FCS, and 100 μl each of the suspension were plated into wells of 96-well round-bottomed plates. Ten different kinds of compounds having an α-glycosylceramide structure shown in FIG. 12 were added to the wells of the plates at a final concentration of 1, 10 or 100 ng/ml, and the plates were incubated for 2 days. Sixteen hours after the addition of [^3H] thymidine (0.5 μCi/well), the cells were harvested. The amount of [^3H] thymidine incorporated into the cells was measured by a liquid scintillation counter.
(Incorporation of labelled thymidine or its analogues reports DNA synthesis.)

The subject of another test is Vα24+ NKT cells. Kind of test: Stimulation of Vα24+ NKT cell proliferation, autologous mixed leukocyte reaction with treated antigen-presenting cells. Type of test: cell-based, human. The note with it: antigen-presenting cells treated with 100 ng/ml, FIG. 9. How it is done:
Peripheral blood mononuclear cells of a normal human were cultured for 4 days in an AIM medium supplemented with 10% FCS with the addition of GM-CSF (400 U/ml), IL-4 (200 U/ml) and KRN 7000 (100 ng/ml) to prepare antigen-presenting cells.
An autologous mixed leukocyte reaction (MLR) was performed using these antigen-presenting cells as stimulator cells and autologous peripheral blood mononuclear cells as responder cells. After incubation for 10 days, IL-2 (5 U/ml) was added, incubation was continued for another 4 days, and the cells were harvested. Next, CD4, CD8 double negative cells were recovered from these harvested cells and subjected to the phenotype analysis. The phenotypic analysis was expressed by fluorescence intensity of labeled antibodies against cells having various phenotypes.
The cells were cultured using IL-2 (5 U/ml) to stimulate the proliferation of Vα24^+ NKT cells, which were used as responder cells in the following autologous mixed leukocyte reaction. Autologous peripheral blood mononuclear cells were cultured for 4 days with the addition of GM-CSF +IL-4 and 100 ng/ml of KRN 7000, AGL-583 (β-galactosylceramide, β-GalCer) or 0.1% DMSO (vehicle) to prepare antigen-presenting cells. An autologous mixed leukocyte reaction was carried out using these antigen-presenting cells as stimulator cells. […]

The test system of test [2] is 4% DSS-induced mouse colitis (CDF1 mice). Kind of test: Suppression of 4% DSS-induced mouse colitis. The test is classed as in vivo. The note with it: KRN 7000 100 μg/kg i.p. days 1, 5, 9, IL-12 1 μg/mouse i.p. days 1, 3, 5, 7, 9. How it is done: Ten animals per group of CDF1 mice (6 weeks of age, females) (Japan SLC Inc.) were used for the following experiment. Day 0 was defined as the day when a 4% DSS solution (4% (w/v) dextran sodium sulfate (DSS) dissolved in water) was first provided as drinking water. The animals were divided into 3 groups, i.e., a group to which 100 μg/kg of KRN 7000 were intraperitoneally administered on days 1, 5, and 9, a group to which 1 μg/mouse of IL-12 was intraperitoneally administered on days 1, 3, 5, 7 and 9, and an untreated (control) group. Body weight was measured and survival or death of the animals were observed daily. Changes in body weight and survival rate are shown in FIG. 5A and 5B, respectively.

The next test relates to mice ((CBAxDBA/2)F1). In words: Induction of abortion in (CBAxDBA/2)F1 mice. The test is classed as in vivo, mouse. The note with it: same amount of IL-12, same manner. How it is done:
C57BL/6 mice (Japan SLC) were used for the following experiment. The day when a vaginal plug was observed was defined as day 0. Pregnant mice were divided into 2 groups (6 mice per group), i.e., one group to which 150 μg/kg of KRN 7000 were intravenously administered on days 7, 8 and 9, and another to which PBS (phosphate-buffered saline) was administered in the same way. On day 12, the uterus was removed to observe the state of the embryo.
IL-12 is also known to activate NKT cells. When the same amount of IL-12 was administered to mice ((CBAxDBA/2)F1) in the same manner, the resulting abortion rate was 34%.

With `CCCCCCCCCCCCCCCCCCCCCC[C@@H](O)C(=O)N[C@@H](CO[C@H]1O[C@H](CO)[C@H](O)[C@H](O[C@@H]2O[C@@H]([C@H](O)CO)[C@H](O)[C@H]2O)[C@H]1O)[C@H](O)[C@H](O)CCCCCCCCCCCCCC` [719-7, O-β-D-galactofuranosyl-(1→3)-O-α-D-galactopyranosyl-(1→1)-(2S,3S,4R)-2-amino-N-[(R)-2-hydroxytetracosanoyl]-1,3,4-octadecanetriol], the “[3H] Thymidine incorporation (cpm)” value in test [1] (1 ng/ml, vehicle 2090) was 5287 cpm; in test [1] (10 ng/ml, vehicle 2056) it was 30179 cpm; in test [1] (100 ng/ml, vehicle 2014) it was 60528 cpm.

Regarding `CCCCCCCCCCCCCCCCCCCCCCCCCC(=O)N[C@@H](CO[C@H]1O[C@H](CO[C@H]2O[C@H](CO)[C@H](O)[C@H](O)[C@H]2O)[C@@H](O)[C@H](O)[C@H]1O)[C@H](O)[C@H](O)CCCCCCCCCCCCCC` [AGL584, O-α-D-galactopyranosyl-(1→6)-O-α-D-glucopyranosyl-(1→1)-(2S,3S,4R)-2-amino-N-hexacosanoyl-1,3,4-octadecane triol], the “[3H] Thymidine incorporation (cpm)” value in test [1] (1 ng/ml, vehicle 2090) is reported as 29331 cpm; in test [1] (10 ng/ml, vehicle 2056) it was 65084 cpm; in test [1] (100 ng/ml, vehicle 2014) it was 96783 cpm.

On to `CCCCCCCCCCCCCCCCCCCCCCCCCC(=O)N[C@@H](CO[C@H]1O[C@H](CO[C@H]2O[C@H](CO)[C@H](O)[C@H](O)[C@H]2O)[C@H](O)[C@H](O)[C@H]1O)[C@H](O)[C@H](O)CCCCCCCCCCCCCC` [AGL586, O-α-D-galactopyranosyl-(1→6)-O-α-D-galactopyranosyl-(1→1)-(2S,3S,4R)-2-amino-N-hexacosanoyl-1,3,4-octa decanetriol], for which the “[3H] Thymidine incorporation (cpm)” value was 5137 cpm in test [1] (1 ng/ml, vehicle 2090); 39750 cpm in test [1] (10 ng/ml, vehicle 2056); 102425 cpm in test [1] (100 ng/ml, vehicle 2014).

As to `CCCCCCCCCCCCCCC[C@@H](O)[C@H](CO[C@H]1O[C@H](C)[C@H](O)[C@H](O)[C@H]1O)NC(=O)CCCCCCCCCCCCC` [AGL571, (2S,3R)-1-(6′-deoxy-α-D-galactopyranosyloxy)-2-tetra decanoylamino-3-octadecanol], the “[3H] Thymidine incorporation (cpm)” value in test [1] (1 ng/ml, vehicle 2090) is 3969 cpm; in test [1] (10 ng/ml, vehicle 2056) it was 17848 cpm; in test [1] (100 ng/ml, vehicle 2014) it was 118092 cpm.

`CCCCCCCCCCCCCCCCCCCCCC[C@@H](O)C(=O)N[C@@H](CO[C@H]1O[C@H](CO)[C@H](O)[C@H](O)[C@H]1O[C@H]1O[C@H](CO)[C@H](O)[C@H](O)[C@H]1O)[C@H](O)[C@H](O)CCCCCCCCCCCCCC` [S1140B-9, O-α-D-galactopyranosyl-(1→2)-O-α-D-galactopyranosyl-(1→1)-(2S,3S,4R)-2-amino-N-[(R)-2-hydroxytetracosanoyl]-1,3,4-octadecanetriol]: the “[3H] Thymidine incorporation (cpm)” value in test [1] (1 ng/ml, vehicle 2090) came to 3387 cpm; in test [1] (10 ng/ml, vehicle 2056) it was 10265 cpm; in test [1] (100 ng/ml, vehicle 2014) it was 49520 cpm.

Take `CCCCCCCCCCCCCCC[C@@H](O)[C@H](CO[C@H]1O[C@H](CO)[C@@H](O)[C@H](O)[C@H]1O)NC(=O)CCCCCCCCCCCCC` [AGL563, (2S,3R)-1-(α-D-glucopyranosyloxy)-2-tetradecanoyl amino-3-octadecanol]: the “[3H] Thymidine incorporation (cpm)” value is reported as 2063 cpm in test [1] (1 ng/ml, vehicle 2090); 3773 cpm in test [1] (10 ng/ml, vehicle 2056); 13131 cpm in test [1] (100 ng/ml, vehicle 2014).

Take `CCCCCCCCCCCCCCCCCCCCCC[C@@H](O)C(=O)N[C@@H](CO[C@H]1O[C@H](CO)[C@H](O)[C@H](O[C@H]2O[C@H](CO)[C@H](O)[C@H](O)[C@H]2NC(C)=O)[C@H]1O[C@H]1O[C@H](CO)[C@@H](O)[C@H](O)[C@H]1O)[C@H](O)[C@H](O)CCCCCCCCCCCCCC` [STL-8]: the “[3H] Thymidine incorporation (cpm)” value in test [1] (1 ng/ml, vehicle 2090) came out at 4761 cpm; in test [1] (10 ng/ml, vehicle 2056), 26474 cpm; in test [1] (100 ng/ml, vehicle 2014), 47141 cpm.

In the case of `CCCCCCCCCCCCCCC[C@@H](O)[C@H](CO[C@H]1OC[C@H](O)[C@H](O)[C@H]1O)NC(=O)CCCCCCCCCCCCC` [AGL577, (2S,3R)-1-(β-L-arabinopyranosyloxy)-2-tetradecanoyl amino-3-octadecanol], the “[3H] Thymidine incorporation (cpm)” value in test [1] (1 ng/ml, vehicle 2090) turned out to be 2083 cpm; in test [1] (10 ng/ml, vehicle 2056) it was 7792 cpm; in test [1] (100 ng/ml, vehicle 2014), 49701 cpm.

Turning to “β-galactosylceramide [reference compound]”, in the test with Vα24+ NKT cells, the “effect of treated antigen presenting cells on Vα24+ NKT cell proliferation ([3H]thymidine uptake)” value is “no effect”.

Consider `CCCCCCCCCCCCCCC[C@@H](O)[C@H](CO[C@H]1O[C@H](CO)[C@H](O)[C@H](O)[C@H]1O)NC(=O)CCCCCCCCCCCCC` [AGL517, (2S,3R)-1-(α-D-galactopyranosyloxy)-2-tetradecanoyl amino-3-octadecanol], for which the “[3H] Thymidine incorporation (cpm)” value in test [1] (1 ng/ml, vehicle 2090) came to 3176 cpm; in test [1] (10 ng/ml, vehicle 2056), 15583 cpm; in test [1] (100 ng/ml, vehicle 2014), 83169 cpm.

B1: IL-12: interleukin 12 (IL-12), known to activate NKT cells (protein, UniProt P29459 23-219; P29460 23-328, looked up)
Interleukin-12 subunit alpha: RNLPVATPDPGMFPCLHHSQNLLRAVSNMLQKARQTLEFYPCTSEEIDHEDITKDKTSTVEACLPLELTKNESCLNSRETSFITNGSCLASRKTSFMMALCLSSIYEDLKMYQVEFKTMNAKLLMDPKRQIFLDQNMLAVIDELMQALNFNSETVPQKSSLEEPDFYKTKIKLCILLHAFRIRAVTIDRVMSYLNAS
Interleukin-12 subunit beta: IWELKKDVYVVELDWYPDAPGEMVVLTCDTPEEDGITWTLDQSSEVLGSGKTLTIQVKEFGDAGQYTCHKGGEVLSHSLLLLHKKEDGIWSTDILKDQKEPKNKTFLRCEAKNYSGRFTCWWLTTISTDLTFSVKSSRGSSDPQGVTCGAATLSAERVRGDNKEYEYSVECQEDSACPAAEESLPIEVMVDAVHKLKYENYTSSFFIRDIIKPDPPKNLQLKPLKNSRQVEVSWEYPDTWSTPHSYFSLTFCVQVQGKSKREKKDRVFTDKTSATVICRKNASISVRAQDRYYSSSWSEWASVPCS
Regarding B1, the “time of weight loss as compared with the control group” value in test [2] (FIG. 5A) is recorded as “at an extremely early period”. The “survival period as compared with the control group” value in test [2] (FIG. 5B) is on record as “significantly shorter”. The molecule further came in with an abortion rate with mice ((CBAxDBA/2)F1) of 34%.
